From US20110217265A1, “Screening for Inhibitors of HCV Amphipathic Helix (AH) Function” (priority 2008, published 2011)

Tests used:
[1] = test system: genotype 2b luciferase reporter-linked HCV replicons; assay: HCV replication assay in combination with NS3 protease inhibitor SCH503034; format: cell-based, Hepatitis C Virus; conditions: combination with various concentrations of SCH503034, FIG. 11
Method: FIG. 11. 4BAH2 inhibitors can increase the anti-HCV activity of agents targeting other elements of HCV. The compound of FIG. 10 was tested in standard HCV replication assays as in FIG. 10 but in the presence of various concentrations of an NS3 protease inhibitor (SCH503034, “SCH”). Note that in these assays a genotype 2b luciferase reporter-linked HCV replicons was used, indicating the broad spectrum potential of the C4 compound against multiple HCV genotypes.
To determine the optimum combination of an HCV AH function inhibiting agent, such as 5-(N-Methyl-N-isobutyl)amiloride, with other anti-HCV agents, HCV replication assays and/or animal studies can be performed in the presence of various combinations of the various anti-HCV agents. Increased inhibition of replication in the presence of an additional agent (above that observed with monotherapy) is evidence for the potential benefit of the combination therapy. For example, HCV replication assays employing a luciferase reporter-linked HCV genome in the presence of various combinations of 3-amino-N-carbamimidoyl-6-chloro-5-(isobutyl(methyl)amino)pyrazine-2-carboxamidepyrazine-2-carboxamide and an NS3 protease inhibitor (SCH503034) are described elsewhere in this application and some results are shown in FIG. 11.
Effect of hits on HCV replication. […]

[2] = target: T1, 4BAH2 peptide (Hepatitis C virus genotype 1b, UniProt Q9WMX2); assay: AFM of 4BAH2 peptide oligomerization on SiOx substrate; format: biochemical
T1 construct: purchased Anaspec Corporation (San Jose, Calif., USA); host or cells: chemical synthesis
T1 sequence (Q9WMX2 1754-1776): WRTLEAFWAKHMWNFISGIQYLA
Method: Atomic Force Microscopy. The AFM experiments were carried out on a XE-Bio (Park Systems Suwon, Korea) in contact and non-contact modes. Rectangular-shaped silicon cantilevers were used (SICON for contact mode and ACT for non-contact mode, AppNano, Santa Clara, Calif.). […] All measurements were performed in a PBS buffer. Images in fluid were obtained both in contact mode with an imaging force of less than 200 pN and in noncontact mode. However, images presented in this manuscript were only obtained in non-contact mode in fluid. The scan line speed was optimized between 0.3 Hz to 1 Hz with a pixel number of 256×256, depending on the scan size. Images were recorded in height, amplitude, phase, and error modes. All measurements were done on the height images. All images shown were subjected to a first order plane-fitting procedure to compensate for sample tilt. The cross-sectional analysis was carried out on images subjected only to a first order plane-fitting procedure. Topographical and grain analyses were performed using the software XEI 1.7.1 supplied by Park Systems (Suwon, Korea).

[3] = target: genotype 1b 4BAH2 (Hepatitis C virus genotype 1b, UniProt Q9WMX2); assay: DLS assay of 4BAH2-induced POPC lipid vesicle aggregation, genotype 1b peptide; format: biochemical; design: purchased Anaspec Corporation (San Jose, Calif., USA); host or cells: chemical synthesis; conditions: POPC vesicles
Method: Dynamic light scattering. Dynamic light scattering was performed by a 90Plus particle size analyzer, and the results were analyzed by digital autocorrelator software (Brookhaven Instruments Corporation, New York). All measurements were taken at a scattering angle of 90°, where the reflection effect is minimized. Dynamic light scattering (DLS) is a well established technique for measuring particle size over the size range from a few nanometers to a few microns. The concept uses the idea that small particles in a suspension move in a random pattern, i.e., Brownian motion. When a coherent source of light (such as a laser) having a known frequency is directed at the moving particles, the light is scattered at a different frequency. The shift in light frequency is related to the size of the particles causing the shift. Due to their higher average velocity, smaller particles cause a greater shift in the light frequency than larger particles. […]
Dynamic Light Scattering. Dynamic light scattering (DLS) was performed using a doubled, Nd:YAG laser (model 532 DPSS, Coherent Laser Group, Santa Clara, Calif.) with a wavelength, λ, of […] and a Brookhaven digital autocorrelator, and analyzed by digital autocorrelator software (Brookhaven Instruments Corporation, New York, USA). […] DLS results were analyzed to give an intensity-weighted size distribution using a discrete Laplace inversion routine. […]

With `CC(C)CN(C)c1nc(N)c(C(=O)NC(=N)N)nc1Cl` [C4, 3-amino-N-carbamimidoyl-6-chloro-5-(isobutyl(methyl)amino)pyrazine-2-carboxamide] the “Effect on anti-HCV activity of NS3 protease inhibitor SCH503034” value [1] was “increases the anti-HCV activity”, the “Effect on 4BAH2 peptide aggregation / self-oligomerization (AFM)” value [2] was “inhibit peptide aggregation” and the “Inhibition of genotype 1b 4BAH2-mediated vesicle aggregation (DLS)” value [3] was “inhibited genotype 1b 4BAH2-mediated vesicle aggregation”.
